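GI50 = concentration required for 50% inhibition of growth. TGI denotes the concentration required for complete inhibition of growth.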
Key:
Assay in all cases: NCI anticancer screen, dose series, 384-well format
[1] = system: NCI-H522 lung
[2] = system: RXF 393 renal
[3] = system: SW-620 colon
[4] = system: SF-295 CNS
[5] = system: SK-OV-3 ovarian
[6] = system: RPMI-8226 leukemia
[7] = system: DU-145 prostate
[8] = system: SK-MEL-28 melanoma
[9] = system: SF-539 CNS
[10] = system: A549 NSCLC
[11] = system: M14 melanoma
[12] = system: CCRF-CEM leukemia
[13] = system: IGROV1 ovarian
[14] = system: HCC-2998 colon
[15] = system: SNB-19 CNS
[16] = system: SK-MEL-2 melanoma
[17] = system: COLO 205 colon
[18] = system: NCI-H23 lung
[19] = system: OVCAR-4 ovarian
[20] = system: LOX IMVI melanoma
[21] = system: MALME-3M melanoma
[22] = system: OVCAR-3 ovarian
[23] = system: SR leukemia
[24] = system: MCF7 breast
[25] = system: SNB-75 CNS
[26] = system: PC-3 prostate
[27] = system: MDA-MB-231 breast
[28] = system: SK-MEL-5 melanoma
[29] = system: EKVX NSCLC
[30] = system: CAKI-1 renal
[31] = system: NCI-H460 NSCLC
[32] = system: TK-10 renal
[33] = system: 786-0 renal
[34] = system: UACC-257 melanoma
[35] = system: A498 renal
[36] = system: MDA-MB-435 melanoma
[37] = system: UACC-62 melanoma
[38] = system: OVCAR-8 ovarian
[39] = system: HT29 colon
[40] = system: HOP-62 NSCLC
[41] = system: K-562 leukemia
[42] = system: SF-268 CNS
[43] = system: MDA-MB-468 breast
[44] = system: T-47D breast
[45] = system: SN12C renal
[46] = system: ACHN renal
[47] = system: NCI-H226 lung
[48] = system: U251 glioblastoma
[49] = system: MOLT-4 leukemia
[50] = system: HOP-92 NSCLC
[51] = system: HS 578T breast
[52] = system: KM12 colon
[53] = system: HCT-116 colon
[54] = system: NCI-H322M lung
[55] = system: OVCAR-5 ovarian
[56] = system: NCI/ADR-RES ovarian
[57] = system: BT-549 breast
[58] = system: HCT-15 colon
[59] = system: HL-60(TB) leukemia
[60] = system: UO-31 renal

Compound: Cc1ccncc1N1CCN(c2ccnc(Cl)c2)C1=O
- GI50 [1]: > 100 µM
- TGI [1]: > 100 µM
- GI50 [2]: > 100 µM
- TGI [2]: > 100 µM
- GI50 [3]: > 100 µM
- TGI [3]: > 100 µM
- GI50 [4]: > 100 µM
- TGI [4]: > 100 µM
- GI50 [5]: > 100 µM
- TGI [5]: > 100 µM
- GI50 [6]: > 100 µM
- TGI [6]: > 100 µM
- GI50 [7]: > 100 µM
- TGI [7]: > 100 µM
- GI50 [8]: > 100 µM
- TGI [8]: > 100 µM
- GI50 [9]: > 100 µM
- TGI [9]: > 100 µM
- GI50 [10]: > 100 µM
- TGI [10]: > 100 µM
- GI50 [11]: > 100 µM
- TGI [11]: > 100 µM
- GI50 [12]: > 100 µM
- TGI [12]: > 100 µM
- GI50 [13]: > 100 µM
- TGI [13]: > 100 µM
- GI50 [14]: > 100 µM
- TGI [14]: > 100 µM
- GI50 [15]: > 100 µM
- TGI [15]: > 100 µM
- GI50 [16]: > 100 µM
- TGI [16]: > 100 µM
- GI50 [17]: > 100 µM
- TGI [17]: > 100 µM
- GI50 [18]: > 100 µM
- TGI [18]: > 100 µM
- GI50 [19]: > 100 µM
- TGI [19]: > 100 µM
- GI50 [20]: > 100 µM
- TGI [20]: > 100 µM
- GI50 [21]: > 100 µM
- TGI [21]: > 100 µM
- GI50 [22]: > 100 µM
- TGI [22]: > 100 µM
- GI50 [23]: > 100 µM
- TGI [23]: > 100 µM
- GI50 [24]: > 100 µM
- TGI [24]: > 100 µM
- GI50 [25]: > 100 µM
- TGI [25]: > 100 µM
- GI50 [26]: > 100 µM
- TGI [26]: > 100 µM
- GI50 [27]: > 100 µM
- TGI [27]: > 100 µM
- GI50 [28]: > 100 µM
- TGI [28]: > 100 µM
- GI50 [29]: > 100 µM
- TGI [29]: > 100 µM
- GI50 [30]: > 100 µM
- TGI [30]: > 100 µM
- GI50 [31]: > 100 µM
- TGI [31]: > 100 µM
- GI50 [32]: > 100 µM
- TGI [32]: > 100 µM
- GI50 [33]: > 100 µM
- TGI [33]: > 100 µM
- GI50 [34]: > 100 µM
- TGI [34]: > 100 µM
- GI50 [35]: > 100 µM
- TGI [35]: > 100 µM
- GI50 [36]: > 100 µM
- TGI [36]: > 100 µM
- GI50 [37]: > 100 µM
- TGI [37]: > 100 µM
- GI50 [38]: > 100 µM
- TGI [38]: > 100 µM
- GI50 [39]: > 100 µM
- TGI [39]: > 100 µM
- GI50 [40]: > 100 µM
- TGI [40]: > 100 µM
- GI50 [41]: > 100 µM
- TGI [41]: > 100 µM
- GI50 [42]: > 100 µM
- TGI [42]: > 100 µM
- GI50 [43]: > 100 µM
- TGI [43]: > 100 µM
- GI50 [44]: > 100 µM
- TGI [44]: > 100 µM
- GI50 [45]: > 100 µM
- TGI [45]: > 100 µM
- GI50 [46]: > 100 µM
- TGI [46]: > 100 µM
- GI50 [47]: > 100 µM
- TGI [47]: > 100 µM
- GI50 [48]: > 100 µM
- TGI [48]: > 100 µM
- GI50 [49]: > 100 µM
- TGI [49]: > 100 µM
- GI50 [50]: > 100 µM
- TGI [50]: > 100 µM
- GI50 [51]: > 100 µM
- TGI [51]: > 100 µM
- GI50 [52]: > 100 µM
- TGI [52]: > 100 µM
- GI50 [53]: > 100 µM
- TGI [53]: > 100 µM
- GI50 [54]: > 100 µM
- TGI [54]: > 100 µM
- GI50 [55]: > 100 µM
- TGI [55]: > 100 µM
- GI50 [56]: > 100 µM
- TGI [56]: > 100 µM
- GI50 [57]: > 100 µM
- TGI [57]: > 100 µM
- GI50 [58]: > 100 µM
- TGI [58]: > 100 µM
- GI50 [59]: > 100 µM
- TGI [59]: > 100 µM

Compound: NC(=O)[C@@H](CCC(F)(F)F)N(Cc1ccc(-c2ncon2)cc1F)S(=O)(=O)c1ccc(Cl)cc1
- GI50 [1]: 17.7 µM
- TGI [1]: 31.6 µM
- GI50 [2]: 11.7 µM
- TGI [2]: 23.9 µM
- GI50 [3]: 17.6 µM
- TGI [3]: 32.5 µM
- GI50 [4]: 17 µM
- TGI [4]: 31 µM
- GI50 [5]: 17.5 µM
- TGI [5]: 34.4 µM
- GI50 [6]: 13.6 µM
- TGI [6]: 26.6 µM
- GI50 [7]: 19 µM
- TGI [7]: 36.4 µM
- GI50 [8]: 18.1 µM
- TGI [8]: 32.1 µM
- GI50 [9]: 17.7 µM
- TGI [9]: 31.7 µM
- GI50 [10]: 14.6 µM
- TGI [10]: 28.1 µM
- GI50 [11]: 12.5 µM
- TGI [11]: 25.1 µM
- GI50 [12]: 11.6 µM
- TGI [12]: 23.8 µM
- GI50 [13]: 16.4 µM
- TGI [13]: 30.5 µM
- GI50 [14]: 3.09 µM
- TGI [14]: 12.6 µM
- GI50 [15]: 16.9 µM
- TGI [15]: 31.5 µM
- GI50 [17]: 15.5 µM
- TGI [17]: 30.2 µM
- GI50 [18]: 14.6 µM
- TGI [18]: 28.6 µM
- GI50 [19]: 14.7 µM
- TGI [19]: 28.1 µM
- GI50 [20]: 14.4 µM
- TGI [20]: 27.8 µM
- GI50 [21]: 13.4 µM
- TGI [21]: 26.2 µM
- GI50 [22]: 15.6 µM
- TGI [22]: 29.1 µM
- GI50 [24]: 14.5 µM
- TGI [24]: 28.3 µM
- GI50 [25]: 14.1 µM
- TGI [25]: 28.1 µM
- GI50 [26]: 12.7 µM
- TGI [26]: 25.8 µM
- GI50 [27]: 14.6 µM
- TGI [27]: 28.5 µM
- GI50 [28]: 12.9 µM
- TGI [28]: 25.8 µM
- GI50 [29]: 15.8 µM
- TGI [29]: 31.4 µM
- GI50 [30]: 15.9 µM
- TGI [30]: 30.9 µM
- GI50 [31]: 15.5 µM
- TGI [31]: 29.2 µM
- GI50 [32]: 18.3 µM
- TGI [32]: 36.4 µM
- GI50 [33]: 14.4 µM
- TGI [33]: 27.6 µM
- GI50 [34]: 14.1 µM
- TGI [34]: 27.3 µM
- GI50 [35]: 17.7 µM
- TGI [35]: 31.8 µM
- GI50 [36]: 13.5 µM
- TGI [36]: 26.8 µM
- GI50 [37]: 11.4 µM
- TGI [37]: 23.6 µM
- GI50 [38]: 17.1 µM
- TGI [38]: 31 µM
- GI50 [39]: 14.2 µM
- TGI [39]: 27.4 µM
- GI50 [40]: 14.7 µM
- TGI [40]: 28.1 µM
- GI50 [41]: 13.5 µM
- TGI [41]: 26.7 µM
- GI50 [42]: 13 µM
- TGI [42]: 25.8 µM
- GI50 [43]: 3.28 µM
- TGI [43]: 22.1 µM
- GI50 [44]: 2.15 µM
- TGI [44]: 10.5 µM
- GI50 [45]: 16.7 µM
- TGI [45]: 30.5 µM
- GI50 [46]: 16 µM
- TGI [46]: 30 µM
- GI50 [47]: 14.4 µM
- TGI [47]: 28.3 µM
- GI50 [48]: 17.3 µM
- TGI [48]: 31.1 µM
- GI50 [49]: 5.98 µM
- TGI [49]: 19.8 µM
- GI50 [50]: 13.1 µM
- TGI [50]: 26.2 µM
- GI50 [51]: 12.6 µM
- TGI [51]: 25.2 µM
- GI50 [60]: 13 µM
- TGI [60]: 25.9 µM
- GI50 [52]: 15 µM
- TGI [52]: 28.7 µM
- GI50 [53]: 15.2 µM
- TGI [53]: 28.8 µM
- GI50 [54]: 15 µM
- TGI [54]: 29.5 µM
- GI50 [55]: 17.7 µM
- TGI [55]: 33.8 µM
- GI50 [56]: 17.1 µM
- TGI [56]: 32 µM
- GI50 [57]: 17.2 µM
- TGI [57]: 32.2 µM
- GI50 [58]: 15.4 µM
- TGI [58]: 29.9 µM
- GI50 [59]: 14 µM
- TGI [59]: 27.1 µM
